We go through three compounds from patent publication US12059486B2, “Cosmetic compositions” (Rodan & Fields, LLC, priority 2021, dated 2024).

The nature of experiment [1]: Free radical scavenging activity (ABTS). Format: biochemical. As to conditions: 0.06 mg/mL; expressed as % water control. As to the method:
Free radical scavenging activity was tested of different experimental conditions expressed as % water control. The positive control, ascorbic acid (Ref. 5), reached the expected level of inhibitory activity technically validating the experiments.

Experiment [2] has as its system human epidermal melanocytes. Description: Melanin content in human epidermal melanocytes. The following applies: 7 days. Format: cell-based. The protocol: Test materials were added to exponentially growing cultures and the experiment was terminated 7 days later.
The next experiment concerns Type I Collagen. The experiment is described as follows: Output of ECM components in adult human dermal fibroblast culture model (Method E): type I collagen. The following applies: 10 ng/mL; day 7; corrected for cell numbers, % of water control. In kind it is cell-based. The protocol: (§1) Method E: Metabolism, Proliferation and Output of ECM Components in the Adult Human Dermal Fibroblast Culture Model. Test materials were dissolved in sterile cell culture medium at ×2 highest concentration tested and samples were added in triplicates to exponentially growing adult human dermal fibroblasts (aHDF; 7,000 cells/well of a 96 well plate; p.7 Cell Applications, San Diego, CA, cat. #106-05a; lot #3014). Cultures were maintained in DMEM/10% FBS. At the end of the experiments (day 7), macromolecules of interest were quantified either in the cell culture medium (decorin, type I collagen, type III collagen and hyaluronate) or on fixed cells (total insoluble proteins and elastin), by ELISA and sulforhodamine B, as indicated in Tables II-IV. Total insoluble (cytoskeletal) proteins were quantified to determine the effect of test materials on cell proliferation (cell numbers or cell #) according to the method described by Voigt et al., 2005. These values were also used to standardize decorin, type I collagen, type III collagen, elastin and hyaluronate output data to cell numbers, using the Equation 1: (Standardized Cell #)=[macromolecule of interest raw read out value]/cell number raw read out value] […]
(§2) This standardization was performed separately for each well. […] All colorimetric measurements were performed using Molecular Devices microplate reader MAX190 and SoftMax3.1.2PRO software. […]

The test system of a further experiment is Type III collagen. The experiment is described as follows: Output of ECM components in adult human dermal fibroblast culture model (Method E): type III collagen. In kind it is cell-based. The following applies: 10 ng/mL; day 7; corrected for cell numbers, % of water control. The protocol: as §1, §2
The subject of a further experiment is decorin. The experiment is described as follows: Output of ECM components in adult human dermal fibroblast culture model (Method E): decorin. In kind it is cell-based. As to conditions: 10 ng/mL; day 7; corrected for cell numbers, % of water control. As to the method:
as §1, §2

For a further experiment, the system named is elastin. Description: Output of ECM components in adult human dermal fibroblast culture model (Method E): elastin. Format: cell-based. As to conditions: 10 ng/mL; day 7; fixed cells; corrected for cell numbers, % of water control. The protocol:
as §1, §2

For the next experiment, the system named is hyaluronate. Description: Output of ECM components in adult human dermal fibroblast culture model (Method E): hyaluronate. Format: cell-based. The following applies: 10 ng/mL; day 7; corrected for cell numbers, % of water control. As to the method:
as §1, §2

For the next experiment, the system named is soluble decorin. The experiment is described as follows: Soluble decorin in adult human dermal fibroblasts (Method F). As to conditions: 10 ng/mL; day 7; standardized to cell numbers, % of water control. In kind it is cell-based. As to the method:
(§3) Method F: Test materials were dissolved in sterile cell culture medium at x2 highest concentration tested and samples were added in triplicates to exponentially growing adult human dermal fibroblasts (7,000 cells/well of a 96 well plate; p.7 Cell Applications, San Diego, CA, cat. #106-05a; lot #3014). Cultures were maintained in DMEM/10%FBS. At the end of the experiment (day 7), decorin was quantified in the cell culture medium (soluble fraction) and on fixed cells (insoluble fraction) by ELISA. Total insoluble (cytoskeletal) proteins were quantified to determine the effect of test materials on cell proliferation (cell numbers or cell #) according to the method described by Voigt et al., 2005. These values were also used to standardize decorin output data to cell numbers, using Equation 1. This standardization was performed separately for each well. Each experimental condition and control was assayed at least in triplicates. The effect of test materials on mitochondrial metabolism was measured with the MTT assay, which measures the activity of mitochondrial dehydrogenases, such as succinate dehydrogenase, implicated in the respiratory electron transport chain in mitochondria (Berridge & Tan; 1993).

The next experiment concerns insoluble decorin. The experiment is described as follows: Insoluble decorin in adult human dermal fibroblasts (Method F). Format: cell-based. As to conditions: 10 ng/mL; day 7; standardized to cell numbers, % of water control. The protocol: as §3

`O=C1O[C@H]([C@@H](O)CO)C(O)=C1O` [Ref. 5, ascorbic acid] displayed an ABTS in experiment [1] of 0 % Control.

With `O=c1cc(CO)occ1O` [Ref. 4, Kojic acid], the figures for the Melanin cell number-adjusted in [2] (50 ug/mL) and in [2] (200 ug/mL) were 103 % Control and 46 % Control, respectively.

On to basic fibroblast growth factor [bFGF], for which the “Type I Collagen” value with Type I Collagen was determined as 67 % CTR. In the experiment on Type III collagen, the “Type III collagen” value is 87 % CTR. The same compound returned a decorin in the experiment on decorin of 57 % CTR. Also, the elastin with elastin was determined as 62 % CTR. Moreover, the Hyaluronian in the experiment on hyaluronate turned out to be 72 % CTR. Moreover, the Soluble decorin with soluble decorin is recorded as 67 % CTR. In the experiment on insoluble decorin, the Insoluble decorin worked out at 87 % CTR.
